{
  "source": "patent US9206396B2",
  "about": "“Methods and devices for quantitative viral assays” (Wisconsin Alumni Research Foundation, priority 2005, dated 2015)",
  "test_in_all_cases": "microbe, parasite or virus in culture",
  "format_in_all_cases": "cell-based, recombinant VSV in BHK cells",
  "key": {"rVSV-GFP [1]": {"test_system": "rVSV-GFP"}, "rVSV-GFP [2]": {"test_system": "rVSV-GFP", "remark": "listed apart in the source"}, "rVSV-GFP [3]": {"test_system": "rVSV-GFP", "remark": "listed apart in the source"}},
  "note": "Entries after “also recorded” stand apart in the source; their conditions may differ. Read-outs that look alike come from different tables or passages of the source.",
  "data": [
    {"compound": "O=c1[nH]cc(F)c(=O)[nH]1", "note": "[5-fluorouracil]", "values": [
      {"measurement": "Infection at drug concentration of 16 μg/ml, plaque assay", "setting": "rVSV-GFP [1]", "value": "retained detectable infection"},
      {"measurement": "IC50", "setting": "rVSV-GFP [1]; Vesicular stomatitis virus, read-out: IC50, drug concentration required to reduce the number of plaques by 50%", "value": 16, "unit": "µg/mL"},
      {"measurement": "Infection at drug concentration of 16 μg/ml, yield assay", "setting": "rVSV-GFP [2]", "value": "retained detectable infection"},
      {"measurement": "IC50", "setting": "rVSV-GFP [2]; Vesicular stomatitis virus, read-out: IC50, drug concentration required to reduce the virus yield by 50%", "value": 4, "unit": "µg/mL"},
      {"measurement": "Detection of comets at 16 μg/ml", "setting": "rVSV-GFP [3]", "value": "comets could no longer be detected"},
      {"measurement": "Inhibition of VSV comet formation", "setting": "rVSV-GFP [3]", "value": "Dose-dependent inhibition; also recorded: inhibited the formation of comets in a dose-dependent manner"},
      {"measurement": "IC50", "setting": "rVSV-GFP [3]; Vesicular stomatitis virus, read-out: 50 percent inhibition concentration (IC50), virus infectivity, comet assay", "value": 1, "unit": "µg/mL"}
    ]}
  ]
}
